Experimental data from patent US10441593B2, “Treatment of pain associated with dislocation of endometrium” (PREGLEM S.A., priority 2010, dated 2019).
Values joined by “and” are separate entries in the source; they are usually repeats but may differ in a detail not shown here. Equal entries are not always repeated.

System: patients with heavy menstrual bleeding and pain who had adenomyosis
Assay: Clinical study: 13 weeks oral 5 mg or 10 mg ulipristal in patients with adenomyosis (Example 1)
Format: in vivo, human
Protocol: A double-blinded, randomized, placebo-controlled study evaluating the effect of long term (13 weeks) oral administration of 5 mg or 10 mg ulipristal in patients with heavy menstrual bleeding and pain included 5 patients who had adenomyosis.
These patients included women 36 years of age or older diagnosed by MRI with adenomyosis but no evidence of uterine fibroid.
The patients were randomized as follows: 1 patient received a daily placebo treatment (matching Esmya tablet appearance) and iron 80 mg/day, 2 patients received a daily dose of 5 mg ulipristal (Esmya®) and iron 80 mg/day and 2 patients received a daily dose of 10 mg ulipristal (Esmya®) and iron 80 mg/day for 13 weeks.
Different parameters were assessed before treatment (Baseline) and after the end of treatment (13 weeks): • The PBAC score (Pictorial Blood Loss Assessment Chart) gives an estimation of the menstrual blood loss. This score was measured before treatment and continuing up to week 13 of treatment. Normal menstrual bleeding score is <75. Abnormal bleeding (menorrhagia) is characterized by a PBAC score >100. Higher the score, worse is the bleeding. • The Uterine volume was estimated before treatment (Baseline Uterine volume) and the % change in uterine volume was reported at the end of the treatment (week 13). • The SF-M P QPart A (short form of the Mc Gill Pain questionnaire) was used as a measure of the sensory, affective and intensity dimensions of pain. The pain was estimated before treatment and the change was reported at the end of the treatment (week 13). (NOTE: The lowest is the score, the better it is). • The SF-MPQ Part B (short form of the Mc Gill Pain questionnaire) wherein the pain is assessed with a visual analogue scale (VAS) before treatment and the change was reported at the end of the treatment (week 13). (NOTE: The lowest is the score, the better it is). • Discomfort questionnaire (disease specific quality of life questionnaire) estimating the quality of life before treatment and the change was reported at the end of the treatment (week 13). (NOTE: The lowest is the score, the better it is). • The level of Hb (Hemoglobin) was measured before treatment and at the end of the treatment. (NOTE: the higher it is, the better it is.) 3. Results

[1] = 5 mg/day + iron 80 mg/day, 13 weeks, patient 130/1368, adenomyosis
[2] = 5 mg/day + iron 80 mg/day, 13 weeks, patient 142/1036, adenomyosis
[3] = 10 mg/day + iron 80 mg/day, 13 weeks, patient 148/1427, adenomyosis
[4] = 10 mg/day + iron 80 mg/day, 13 weeks, patient 154/1240, adenomyosis
[5] = daily dose of 5 mg or 10 mg, examples 1 and 2

## CC(=O)O[C@]1(C(C)=O)CC[C@H]2[C@@H]3CCC4=CC(=O)CCC4=C3[C@@H](c3ccc(N(C)C)cc3)C[C@@]21C [Ulipristal, 17α-acetoxy-11β-[4-N,N-dimethylamino-phenyl)-19-norpregna-4,9-diene-3,20-dione]
[1]
  % change in uterine volume at week 13: −21.5%
  Change in PBAC: −232
  Discomfort questionnaire Change at Week 13: −5
  Hb at Week 13: 13.5 g/dL
  PBAC at week 13: 0
  SF-MPQ Part A Change at Week 13: −5
  SF-MPQ Part B (VAS) Change at Week 13: −7
[2]
  % change in uterine volume at week 13: +0.4%
  Change in PBAC: −994
  Discomfort questionnaire Change at Week 13: −9
  Hb at Week 13: 14 g/dL
  PBAC at week 13: 0
  SF-MPQ Part A Change at Week 13: 0
  SF-MPQ Part B (VAS) Change at Week 13: −6
10 mg, both patients, adenomyosis
  pain at 10 mg, both patients: Very substantial improvement in pain
10 mg, one of the two patients, adenomyosis
  pain at 10 mg, one of the patients: complete absence of pain
[3]
  % change in uterine volume at week 13: 36.4%
  Change in PBAC: −624
  Discomfort questionnaire Change at Week 13: −20
  Hb at Week 13: 13.6 g/dL
  PBAC at week 13: 0
  SF-MPQ Part A Change at Week 13: −2
  SF-MPQ Part B (VAS) Change at Week 13: −43
[4]
  % change in uterine volume at week 13: −32.0%
  Change in PBAC: −536
  Discomfort questionnaire Change at Week 13: −12
  Hb at Week 13: 12.1 g/dL
  PBAC at week 13: 0
  SF-MPQ Part A Change at Week 13: −14
  SF-MPQ Part B (VAS) Change at Week 13: −93
All 4 patients treated with 5 mg or 10 mg, adenomyosis
  PBAC score at the end of treatment (week 13): 0
All four patients, 5 mg or 10 mg, 13 weeks, adenomyosis
  pain as measured with the SF-MPQ Part B (VAS) compared to the placebo treated patient: improvements in pain
All four patients, 5 mg or 10 mg, adenomyosis
  quality of life compared to the placebo treated patient: substantial improvement in the quality of life
All four patients, 5 mg or 10 mg, concomitant iron 80 mg once daily
  Hb at the end of the treatment: increase in Hb
[5]
  PBAC score at the end of the treatment: amenorrhea
  uterine volume at the end of treatment: decrease in uterine volume
Daily dose of 5 mg or 10 mg, with or without concomitant iron
  levels of Hb during the treatment: increased
Individual ulipristal treated patients (5 mg or 10 mg), adenomyosis
  % change in uterine volume at week 13: +36.4% and +0.4% and −21.5% and −32%
Patients treated at 10 mg vs patients that received 5 mg, adenomyosis
  pain relief, 10 mg compared to 5 mg: better pain relief
